For ten compounds, EC50 results are on record in publication PMC7796259, “Evaluation of Ionic Liquids and Ionic Liquids Active Pharmaceutical Ingredients Inhibition in Elastase Enzyme Activity” (Molecules, 2021).

Test [1] deals with T1, Elastase from porcine pancreas (Sus scrofa, UniProt P00772).
T1 construct: purchased Sigma-Aldrich; host or cells: porcine pancreas (tissue-derived commercial powder)
As to the kind of experiment: Elastase inhibition assay, spectrophotometric (N-succinyl-Ala-Ala-Ala-p-nitroanilide, 405 nm). In kind it is biochemical. As to the method:
In order to evaluate the effect of these compounds (ILs and IL-APIs), an enzymatic reaction based on the conversion of the substrate N-succinyl-Ala-Ala-Ala-p-nitroaniline to succinyl-Ala-Ala-Ala and p-nitroaniline by the enzyme elastase was performed. The enzyme activity is determined by the formation of p-nitroaniline, the chromogenic compound resulted from the reaction. Substrate degradation was continuously monitored in the spectrophotometer by measuring increasing absorbance at 405 nm.
The EC50 values for each IL were calculated as the inhibitory concentration causing a 50% decrease in Elastase activity. The EC50 values were automatically calculated, using GraphPad prism8 software.
All the reagents (HEPES buffer, N-succinyl-Ala-Ala-Ala p-nitroanilide, Elastase and acetate buffer) were added sequentially in eppendorf, being the final volume equal to 250 µL. So, in each eppendorf it was added 137.5 µL of HEPES buffer, 10 µL of N-succinyl-Ala-Ala-Ala p-nitroanilide substrate, 30 µL of elastase, 70 µL of acetate buffer, 2.5 µL of DMSO. In inhibitory assays was 87.5 µL of HEPES buffer, 10 µL of N-succinyl-Ala-Ala-Ala p-nitroanilide substrate, 30 µL of elastase, 70 µL of acetate buffer, 2.5 µL of DMSO, and 50 µL of IL/IL-APIs.
Next, the eppendorf was placed inside the thermostatic bath at 37 °C for 10 min.
After 10 min, the reaction product was measured in spectrophotometer at 405 nm.
All assays were performed in batch mode. Thus, the different reagents were placed manually in an eppendorf at the desired concentrations and volumes. After, they were placed in a thermostatic bath where the reaction temperature was regulated for the desired period. The succinyl-Ala-Ala-Ala and p-nitroaniline result from the cleavage of the substrate N-succinyl-Ala-Ala-Ala-p-nitroaniline by porcine elastase enzyme. The enzyme activity was determined by monitoring the chromogenic compound, p-nitroaniline, at 405 nm. All results of ILs and IL-APIs were obtained in duplicate.

Another test has as its target carboxylesterase. The settings on record: read-out: EC50 for carboxylesterase; compared with elastase values; cited from earlier work.
The mark [2] stands for this setting: IL-APIs, aqueous solutions, 37 °C, 10 min, substrate 100 µM, duplicate, read-out: EC50 (µM) ± SD.

Read-outs that look alike come from different tables or passages of the source. Where a SMILES comes first, the peptide text is derived from it. The star is where a group is joined. MeOSuc = COC(=O)CCC(=O)*; CH2Cl = ClC*

T1 sequence (P00772 27-266): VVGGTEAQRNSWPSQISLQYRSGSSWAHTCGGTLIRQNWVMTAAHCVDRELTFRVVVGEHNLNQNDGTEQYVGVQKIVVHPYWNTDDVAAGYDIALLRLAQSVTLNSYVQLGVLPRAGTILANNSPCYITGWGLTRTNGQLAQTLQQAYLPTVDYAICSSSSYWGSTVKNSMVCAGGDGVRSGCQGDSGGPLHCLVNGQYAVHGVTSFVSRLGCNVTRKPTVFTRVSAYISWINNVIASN

Turning to `CC(C)(C)CC(C)(C)c1ccc(OCCOCC[N+](C)(C)Cc2ccccc2)cc1.O=S(=O)([N-]S(=O)(=O)C(F)(F)F)C(F)(F)F` [Benzethonium bistriflimide], the concentration giving a half-maximal response (EC50) (usually the concentration at which the effect is half-maximal) in test [1] (setting [2]) was over 1000 µM.

For `O=S(=O)(NS(=O)(=O)C(F)(F)F)C(F)(F)F` [Lithium bistriflimide], the EC50 in test [1] (setting [2]) came out at 209 ± 12 µM.

As for `COC(=O)CCC(=O)N[C@@H](C)C(=O)N[C@@H](C)C(=O)N1CCC[C@H]1C(=O)N[C@H](C(=O)CCl)C(C)C` [MeOSuc-Ala-Ala-Pro-Val-chloromethylketone, reference compound] (MeOSuc-AAPV-CH2Cl), in test [1] (ILs and positive control, aqueous solutions, 37 °C, 10 min, substrate 100 µM, duplicate, read-out: EC50 (mM) ± SD), the EC50 was 470 ± 50 µM.

For `O=C([O-])c1ccccc1O.[Na+]` [Sodium salicylate, reference compound], the EC50 in test [1] (read-out: EC50 (µM) ± SD) is 124 ± 4 µM; at carboxylesterase, 116.99 ± 0.02 µM.

Turning to `CCCC[P+](C)(CCCC)CCCC` [Tributylmethylphosphonium salicylate], the EC50 in test [1] (setting [2]) is over 200 µM.

For the compound `CCCCC(CC)COC(=O)CC(C(=O)OCC(CC)CCCC)S(=O)(=O)[O-].CCCCCCCCCCCCCC[P+](CCCCCC)(CCCCCC)CCCCCC` [Trihexyltetradecylphosphonium docusate], in test [1] (setting [2]), the EC50 is over 700 µM.

In the case of `CCCCCCCCCCCCCC[P+](CCCCCC)(CCCCCC)CCCCCC` [Trihexyltetradecyphosphonium chloride], the EC50 in test [1] (setting [2]) is over 100 µM.

Benzalkonium salicylate: the EC50 in test [1] (setting [2]) is 230 ± 20 µM.

Take Benzethonium docusate: the EC50 in test [1] (setting [2]) was over 200 µM.

As for Benzethonium salicylate, the EC50 in test [1] (setting [2]) was over 500 µM.
